Reference: patent US12459957B2, “Therapeutic compounds and methods” (GENENTECH, INC., priority 2021, dated 2025)

Assays:
[1] = tested on: neutrophils (PMA-stimulated NETosis); test: Quantification of NETosis using SYTOX Green; assay type: cell-based, human; settings: for 5 uM (% NETosis): compound at 5 uM, vehicle 79.66, untreated 14.54; for IC50: Homo sapiens, Neutrophil, NETosis, SYTOX Green-stained neutrophils, PMA-stimulated
Text: Semi-automated analysis of both phase and fluorescence images of SYTOX Green-stained neutrophils used a MATLAB algorithm. Total cells were counted by scoring phase standard deviation and radial symmetry. NETosis was classified in cells by measuring the DNA area in the fluorescence image and comparing with a select internal training set for each experiment. Unstimulated cells and PMA-stimulated, pyocyanin-inhibited cells served as negative controls. PMA-stimulated cells served as a positive control. NET-forming cells are presented as a percentage of total cells.

[2] = tested on: neutrophils (PMA-stimulated ROS); test: ROS detection assay (ROS-Glo, H2O2); assay type: cell-based; settings: Neutrophil; human neutrophils, 30 min preincubation, 50 nM PMA for 30 min
Method: ROS were measured in neutrophils using the ROS-Glo bioluminescent assay (Promega) for the direct detection of H2O2. Neutrophils were isolated from fresh human blood using a biphasic Histopaque gradient as described here. Cells (100 uL per well) were plated in 96-well plates at a density of 200,000 cells/mL in high glucose DMEM medium. Cells were preincubated with either DMSO vehicle or compounds (10-point dilution curve starting at 2 uM with 3-fold serial dilution) for 30 min, and then stimulated with 50 nM PMA for 30 min. Luminescence, after the addition of H2O2 substrate solution for 20 min, and then ROS-Glo detection solution for 20 min, was recorded on a luminescence plate reader. The fifty percent inhibitory concentration (IC50) was determined with GraphPad Prism by plotting the assay output (RLU) versus the logarithm of the compound concentration using a non-linear sigmoid with variable slope algorithm with the default curve-fitting parameters in the Prism software.

[3] = NET-forming cells as percentage of total cells

Structure (SMILES) | 5 uM (% NETosis) [1, 3] | IC50 [2] | other results
N#CCNc1ccc2c(c1)OCc1cc(-c3ccccc3)nn1C2 [Example 39] | 52.08% | 510 nM | –
CC(=O)Nc1ccc2c(c1)OCc1cc(-c3cnn4c3CCC4)nn1C2 [Example 122] | – | 1200 nM | –
CC(=O)Nc1ccc2c(c1)OCc1cc(-c3ccncc3)nn1C2 [Example 124] | – | 410 nM | –
CC(=O)Nc1ccc2c(c1)OCc1cc(-c3cnn(CC(C)C)c3)nn1C2 [Example 120] | – | 346 nM | –
CC(=O)Nc1ccc2c(c1)OCc1cc(-c3cnn(C4CC4)c3)nn1C2 [Example 109] | – | 480 nM | –
CC(=O)Nc1ccc2c(c1)OCc1cc(-c3cnn(C4CCCCO4)c3)nn1C2 (stereo not shown) [Example 115] | – | 7750 nM | –
CC(=O)Nc1ccc2c(c1)OCc1cc(-c3cnn(C)c3)nn1C2 [Example 112] | – | 3050 nM | –
CCn1cc(-c2cc3n(n2)Cc2ccc(NC(C)=O)cc2OC3)cn1 [Example 114] | – | 405 nM | –
CC(=O)Nc1ccc2c(c1)OCc1cc(-c3c[nH]nc3C(C)C)nn1C2 [Example 111] | – | 2100 nM | –
Cc1cc(Nc2ccc3c(c2)OCc2cc(-c4ccccc4)nn2C3)[nH]n1 [Example 33] | 69.42% | > 20000 nM | –
CC(=O)Nc1ccc2c(c1)OCc1cc(-c3cnn(C)c3C)nn1C2 [Example 121] | – | 836 nM | –
CC(=O)Nc1ccc2c(c1)OCc1cc(-c3cn(C)nc3C)nn1C2 [Example 113] | – | 1460 nM | –
CC(=O)Nc1ccc2c(c1)OCc1cc(-c3cnn(C(C)C)c3)nn1C2 [Example 108] | – | 285 nM | –
CC(=O)Nc1ccc2c(c1)OCc1cc(-c3cn(C)nc3C(F)(F)F)nn1C2 [Example 110] | – | 1580 nM | –
CC(=O)Nc1ccc2c(c1)OCc1cc(-c3cnn(CF)c3)nn1C2 [Example 117] | – | 204 nM | –
CC(=O)Nc1ccc2c(c1)OCc1cc(-c3cnn(C(F)(F)F)c3)nn1C2 [Example 125, N-(2-(1-(trifluoromethyl)-1H-pyrazol-4-yl)-4H,10H-benzo[f]pyrazolo[5,1-c][1,4]oxazepin-7-yl)acetamide] | – | 56 nM | –
c1ccc(-c2cc3n(n2)Cc2ccc(Nc4ccn[nH]4)cc2OC3)cc1 [Example 36] | 46.06% | 1400 nM | –
CC(=O)Nc1ccc2c(c1)OCc1cc(-c3cncnc3)nn1C2 [Example 128] | – | 3100 nM | –
CC(=O)Nc1ccc2c(c1)OCc1cc(-c3ccccc3)nn1C2 [Example 1, N-(2-Phenyl-4H,10H-benzo[f]pyrazolo[5,1-c][1,4]oxazepin-7-yl)acetamide] | 37.78% | 93 nM | IC50 [1]: 190 ± 30 nM
CC(=O)Nc1ccc2c(c1)OCc1cc(-c3ccncc3F)nn1C2 [Example 129] | – | 903 nM | –
CC(=O)Nc1ccc2c(c1)OCc1cc(-c3ccccc3F)nn1C2 [Example 55] | 36.33% | 46 nM | –
CC(=O)Nc1ccc2c(c1)OCc1cc(-c3ccncc3C)nn1C2 [Example 68] | 43.49% | 233 nM | –
CC(=O)Nc1ccc2c(c1)OCc1cc(-c3cc(C)nn3C)nn1C2 [Example 58] | 53.96% | 2440 nM | –
CC(=O)Nc1ccc2c(c1)OCc1cc(-c3cnn(C4COC4)c3)nn1C2 [Example 119] | – | 714 nM | –
c1ccc(-c2cc3n(n2)Cc2ccc(Nc4cn[nH]c4)cc2OC3)cc1 [Example 19] | 62.75% | > 20000 nM | –

Structure (SMILES) | 5 uM (% NETosis) [1, 3] | IC50 [2] | other results
CC(=O)Nc1ccc2c(c1)OCc1cc(-c3c[nH]nc3C3CC3)nn1C2 [Example 118] | – | > 20000 nM | –
CC(=O)Nc1ccc2c(c1)OCc1cc(-c3cncs3)nn1C2 [Example 54] | 37.45% | > 20000 nM | –
CC(=O)Nc1ccc2c(c1)OCc1cc(-c3cccc4[nH]c(=O)[nH]c34)nn1C2 [Example 86] | 84.35% | – | –
Cn1cc(Nc2ccc3c(c2)OCc2cc(-c4ccccc4)nn2C3)c(Cl)n1 [Example 31] | 85.26% | – | –
CC(=O)Nc1ccc2c(c1)OCc1cc(-c3ccnc(C)c3)nn1C2 [Example 126] | – | 529 nM | –
CC#CCC(=O)Nc1cccc(-c2cc3n(n2)Cc2ccc(NC(C)=O)cc2OC3)c1 [Example 4, N-(3-(7-acetamido-4H,10H-benzo[f]pyrazolo[5,1-c][1,4]oxazepin-2-yl)phenyl)pent-3-ynamide] | – | – | IC50 [1]: 800 ± 20 nM
CC(=O)Nc1ccc2c(c1)OCc1cc(-c3cnn(C(F)F)c3)nn1C2 [Example 67, N-(2-(1-(difluoromethyl)-1H-pyrazol-4-yl)-4H,10H-benzo[f]pyrazolo[5,1-c][1,4]oxazepin-7-yl)acetamide] | 39.88% | 192 nM | –
CC(=O)Nc1ccc2c(c1)OCc1cc(-c3ccc(S(C)(=O)=O)nc3)nn1C2 [Example 64] | 75.82% | – | –
COc1cc(C(C)=O)ccc1O [Apocynin, reference compound] | – | – | % NETosis ([1]; Apocynin at 100 uM, NET-forming cells as percentage of total cells): 29.06%
c1ccc(-c2cc3n(n2)Cc2ccc(-c4cn[nH]c4)cc2OC3)cc1 [Example 17] | 76.49% | – | –
CC(=O)Nc1ccc2c(c1)OCc1cc(-c3ccnc(C4CC4)c3)nn1C2 [Example 62] | 41.23% | – | –
Cn1cc(-c2ccc3c(c2)OCc2cc(-c4ccccc4)nn2C3)cn1 [Example 11] | 80.81% | – | –
CC(=O)Nc1ccc2c(c1)OCc1cc(-c3cccnc3C3CC3)nn1C2 [Example 65] | 83.56% | – | –
OCC1(Nc2ccc3c(c2)OCc2cc(-c4ccccc4)nn2C3)CC1 [Example 42] | 82.57% | – | –
CC(=O)Nc1ccc2c(c1)OCc1cc(-c3cnc4[nH]ccc4c3)nn1C2 [Example 63] | 80.04% | – | –
CC(=O)Nc1ccc2c(c1)OCc1cc(-c3c(C)cnn3C)nn1C2 [Example 59] | 66.88% | – | –
CC(=O)Nc1ccc2c(c1)OCc1cc(-c3ccc(CN(C)C)cc3)nn1C2 [Example 107] | 85.67% | – | –
Cn1cc(C#N)c(Nc2ccc3c(c2)OCc2cc(-c4ccccc4)nn2C3)n1 [Example 18] | 79.81% | – | –
COc1ncc(-c2cc3n(n2)Cc2ccc(NC(C)=O)cc2OC3)cn1 [Example 77] | 86.51% | – | –
CC(=O)Nc1cccc(-c2cc3n(n2)Cc2ccc(NC(C)=O)cc2OC3)c1 [Example 104] | 26.79% | – | –
CC(=O)Nc1ccc2c(c1)OCc1cc(-c3cccnc3)nn1C2 [Example 127] | – | 1360 nM | –
N#C[C@H]1C[C@H](Nc2ccc3c(c2)OCc2cc(-c4ccccc4)nn2C3)C1 [Example 29] | 87.44% | – | –
CC(=O)Nc1ccc2c(c1)OCc1cc(-c3cncn3C)nn1C2 [Example 53] | 57.77% | – | –
CC(=O)Nc1ccc2c(c1)OCc1cc(-c3cnco3)nn1C2 [Example 52] | 66.03% | – | –
Cn1nccc1Nc1ccc2c(c1)OCc1cc(-c3ccccc3)nn1C2 [Example 32] | 76.40% | – | –
